The record followed here is a melting point compilation (Tetko et al.; mined from patent text by program, amines drawn as free bases though some values may be those of a salt).

Usually melting point stands for the temperature, or range, at which the solid turns liquid.

SMILES strings stand for the structures.

Take `CCCN(C)c1nn(C)c(=O)c2c1ccn2-c1c(C)cc(C)cc1C`: the melting point lay in the range of 105 to 108 °C.

For `C=C(c1nc2ccccc2s1)C1CCN(CCc2ccc(OC)cc2)CC1`, the melting point was 84 to 85 °C.

Molecule `COC(=O)c1csc2nc(N)sc12` came in with a melting point of 221 to 223 °C.

`COc1ccc(C(=O)Nc2ccc(C)c(C)c2)cc1NC(=S)Nc1cccc(C)c1` came in with a melting point of 155 to 160 °C.

`c1ccc(CN(CCNC(c2ccccc2)c2ccccc2)Cc2ccccc2)cc1`: the melting point fell in the range of 89 to 91 °C.

In the case of `COc1cc(C)nc(NC(=O)NS(=O)(=O)c2ccccc2CCSC#N)n1`, the melting point was 161 to 165 °C.

Turning to `CC(Cc1c[nH]c2ccccc12)(NC(=O)OC(C)(C)C(Cl)(Cl)Cl)C(=O)NCCc1ccccn1` (configuration not stated), the melting point is 130 to 133 °C.

`CS(=O)(=O)N(CCCl)N(S(C)(=O)=O)S(C)(=O)=O`: the melting point is 154 to 155 °C.

The molecule `COc1ccc([N+](=O)[O-])cc1CBr` showed a melting point of 78 °C.

Molecule `CC(C)n1cc(Cc2cc3cccc(-c4cccc(C(=O)NCCO)c4)c3s2)ccc1=O` had a melting point of 178 to 183 °C.

For `O=C(COc1ccc(Cl)cc1)N1Cc2cccn2Cc2ccccc21`, the melting point lay within 120 to 122 °C.

For `CCC(=N)c1c(O)cc(-c2ccccc2)n(C)c1=O`, the melting point is 145 to 147 °C.

The molecule `CC(=O)n1nc(-c2nc3ccccc3o2)oc1=O` had a melting point of 231 to 232 °C.

`CCCCNC(=O)OC1c2cccnc2C(=O)N1c1ccc2ccc(Cl)nc2n1` (configuration not stated) had a melting point of 215 °C.

In the case of `C=CCn1cc(C(=O)OCC)c(=O)c2cc(F)c(Cl)cc21`, the melting point fell in the range of 162 to 164 °C.

As for `O=C(/C=C/c1ccc(O)cc1)CC(=O)/C=C/c1ccc(O)cc1Cl`, the melting point lay in the range of 131 to 138 °C.

Take `C=CCN1CC2OC(c3ccccc3)(C1)c1ccccc12` (configuration not stated): the melting point lay within 127 to 128 °C.

Turning to `O=C(NN=Cc1ccc(Cl)cc1)c1cccnc1`, the melting point lay within 188 to 190 °C.

Take `COc1ccnc(CCc2nc3cc(-c4ccc(S(=O)(=O)N5CCNC(=O)CC5)cc4)cnc3[nH]2)c1`: the melting point was 230 to 232 °C.

Take `CC1(C)COS(=O)(=O)OC1`: the melting point is 80 to 82 °C.

Molecule `Clc1cnc2c(Cl)cccc2n1` came in with a melting point of 137 to 138 °C.

In turn, `O=S(=O)(c1cccs1)N(CC1CC1)c1cccc2cc(-c3ncc(CCl)s3)[nH]c12` returned a melting point of 135 °C.

Turning to `Cc1cc2nc(C(=O)NC(Cc3ccc(OCc4ccccc4)cc3)C(=O)O)cn2cc1-c1ccc(Cl)cc1` (configuration not stated), the melting point was in the range of 248 to 249 °C.

As for `CCCCCc1cc2c(cc1C#C/C=C/C(C)=C/C(=O)O)C(C)(C)CCC2(C)C`, the melting point lay within 155 to 156 °C.

`N#CC(=CN1CCOCC1)C(C[N+](=O)[O-])c1cccc(Cl)c1Cl` (configuration not stated) yielded a melting point of 74 to 77 °C.

In the case of `CC(=O)Nc1ccc(OC(F)(F)F)cc1Br`, the melting point stood at 123 °C.

For `O=[N+]([O-])c1ccc(Cl)cc1NN1CCOCC1`, the melting point was 155 °C.

The molecule `O=C(O)C1=Cc2cc(-c3ccc(OC(F)(F)F)cc3)ccc2OCC1` registered a melting point of 252 to 254 °C.

As for `CC12CCC3c4ccc(C(=O)O)cc4CCC3C1CCC2C(=O)CC1CCCCC1` (configuration not stated), the melting point is 239 to 241 °C.

Regarding `CC1NC(=O)N(c2ccc(F)c(Cl)c2)C1=O` (configuration not stated), the melting point is 174 to 176 °C.

Take `COc1cc(Cc2cc3cccc(-c4cccc(C(=O)NCCC#N)c4)c3s2)ccc1F`: the melting point fell in the range of 158 to 159 °C.

`CS(=O)(=O)c1nccc(-c2ccc(Oc3ccc(F)cc3)cc2)n1` displayed a melting point of 146 to 147 °C.

For the molecule `CCC(=O)C(=O)Nc1c(C)c(C)c2c(c1C)C(c1ccc(C(C)C)cc1)CO2` (configuration not stated), the melting point fell in the range of 97 to 98 °C.

Consider `CSc1ncnn1C[C@]1(c2ccc(F)c(F)c2)O[C@@H]1c1ccccc1C(F)(F)F` (relative stereo), for which the melting point was 83 to 85 °C.

As for `O=C1NCCC[C@@H]1NS(=O)(=O)c1ccc(C(F)(F)F)cc1`, the melting point lay in the range of 181 to 183 °C.

`Nc1ccc(OS(=O)(=O)c2ccc(NCCO)cc2)cc1[N+](=O)[O-]` displayed a melting point of 180 °C.

Regarding `CCOP(OCC)c1ccccc1P(c1cccc2ccccc12)c1cccc2ccccc12`, the melting point is 94 to 95 °C.

As for `CCn1c2cc(C=O)ccc2c2c3ccccc3ccc21`, the melting point fell in the range of 148 to 149 °C.

On to `CC(C)OC(=O)c1nc2ccc(OCCCN3CCC(OC(c4ccccc4)c4ccccc4)CC3)nn2n1`, for which the melting point is 126 to 127 °C.

With `COc1cc(OC)nc(NN)n1`, the melting point was found to be 94 °C.

Take `Cc1nc2ccccc2n1C(C)(C)CO`: the melting point fell in the range of 180 to 181 °C.

`Nc1ccc2oc(Cc3ccccc3)cc2c1` yielded a melting point of under 50 °C.

Molecule `O=C(O)C12CC3CC(F)(CC(F)(C3)C1)C2` had a melting point of 162 to 164 °C.

Molecule `CC1c2ccccc2CC(=O)Cc2ccccc21` had a melting point of 152 to 155 °C.

As for `CCNC(=S)NS(=O)(=O)c1cc2c(cc1OCC)OCCC2CNC(=O)N1CC(C)=C(CC)C1=O` (configuration not stated), the melting point fell in the range of 178 to 180 °C.

On to `CCOC(=O)c1cc(C#N)c(C=O)nc1Nc1ccccc1`, for which the melting point lay in the range of 165 to 167 °C.

In turn, `CCc1cc(N)c(I)c(CC)n1` displayed a melting point of 72 to 74 °C.

For `CN(C(=O)CCS(C)(=O)=O)c1cn(-c2cccnc2)nc1Cl`, the melting point is 90 to 91 °C.

Regarding `CC(SC1COC(c2ccc(C(=O)Nc3c(F)c(F)c(C#N)c(F)c3F)cc2)OC1)C(O)(Cn1cncn1)c1ccc(F)cc1F` (configuration not stated), the melting point was found to be 182 °C.

`Cc1cn(N=Cc2ccccc2)cn1` showed a melting point of 91 to 93 °C.

`CCCCCCCCCCCCC1=CC(=O)c2c(Cl)cccc2C1=O` registered a melting point of 57.5 to 58.5 °C.

For the molecule `CCc1cc2c(OCC(=O)OC)cccc2n1Cc1ccccc1`, the melting point lay within 89 to 92 °C.

Regarding `COc1cc2c(cc1NC(=S)Nc1ccc([N+](=O)[O-])cc1)C(C)(C)OCC2(C)C`, the melting point was 198 to 199 °C.

Take `N#Cc1cc(-c2nc3cncnc3s2)ccc1Oc1ccc(Cl)cc1`: the melting point fell in the range of 179 to 180 °C.

The molecule `COc1cc2ccccc2c(=O)c2cc(Cl)sc12` gave a melting point of 190 to 194 °C.

`COc1ccc(CNc2nc(Cl)ccc2C(=O)O)cc1Cl` had a melting point of 184 to 186 °C.

`O=C(NCCO[N+](=O)[O-])c1ccco1` came in with a melting point of 88 to 89 °C.

`CNC(=O)c1ccc(C(=O)OC)cc1N`: the melting point fell in the range of 167 to 168 °C.

As to `CN(CCCCCCCNC(=NCCSCc1csc(NC(=N)N)n1)NC#N)CCN(Cc1ccc(F)cc1)c1ccccn1`, the melting point stood at 118 °C.

`c1ccc(CCC2=NOC3(CCNCC3)C2)cc1`: the melting point is 106 to 109 °C.

As for `Clc1cncnc1NCc1ccc(OCc2ccccc2)cc1`, the melting point was in the range of 95 to 100 °C.

In turn, `O=C(Nc1cccc2[nH]ccc12)c1ccccc1OCCCCBr` gave a melting point of 135 °C.

`OC1(CCc2ccccc2)CCC2(CC1)OCCO2`: the melting point fell in the range of 109 to 110 °C.

Molecule `O=C(c1cc(O)c(O)c([N+](=O)[O-])c1)c1ccccc1F` returned a melting point of 169 to 171 °C.

As for `COc1cc(C(=O)c2ncc3ccc(NS(C)(=O)=O)cn23)ccc1[N+](=O)[O-]`, the melting point amounted to 249 °C.

The molecule `Cc1ccc(-c2cc(Br)c3[nH]c(=O)ccc3c2)c(C)n1` had a melting point of 212 to 215 °C.

In turn, `c1ccc(Sc2cc(Sc3ccccc3)cc(Sc3ccccc3)c2)cc1` gave a melting point of 40 to 41 °C.

Turning to `COc1ccsc1C1CCN(C[C@H](Cc2ccccc2)NC(=O)C2CCCCC2)CC1`, the melting point lay in the range of 92 to 94 °C.

In turn, `COCc1ccc(C(=O)O)c2ccccc12` registered a melting point of 133 to 134 °C.

Molecule `Cc1cc2c3c(cccc3c1)C(=O)N(O)C2=O` showed a melting point of 251 to 253 °C.

`COC(=O)C1(CF)C=NN(C)N1` (configuration not stated) registered a melting point of 64 to 66 °C.

The molecule `CCOc1cc(-c2cccc(C(=O)NCc3cccc4c3C(=O)N(C3CCC(=O)NC3=O)C4=O)n2)ccc1OC` (configuration not stated) displayed a melting point of 196 to 198 °C.

In turn, `CN(O)C(=O)C=Cc1cccc(Oc2ccccc2)c1` registered a melting point of 124 to 125 °C.

`COc1cc(C(C)C)ccc1C1(O)C(=O)c2c(NC(C)=O)ccc([N+](=O)[O-])c2C1=O` (configuration not stated) registered a melting point of 110 to 115 °C.

`N#Cc1cc(-c2ccco2)nc(N)n1` gave a melting point of 193 to 194 °C.

`Cc1cc(OC2CCCC2)ccc1NC(=O)OC(C)(C)C` gave a melting point of 75 to 77 °C.

For the molecule `O=C1N(c2ccccc2Br)Cc2cnc(Nc3ccccc3)nc2N1c1cccc2ccccc12`, the melting point was 120 to 125 °C.

`c1ccc(COc2cccc(CCCn3ccnn3)c2)cc1` gave a melting point of 74 to 75 °C.

`COc1cc(OC)nc(C2(O)OC(=O)c3c(Cl)ccc(Cl)c32)n1` (configuration not stated) came in with a melting point of 161 to 175 °C.

`CSC(NCCSCc1[nH]cnc1C)=C(C#N)C(N)=O`: the melting point lay in the range of 137 to 139 °C.

`CCC(C)(C)c1cccc(NC=O)c1C` registered a melting point of 51 to 53 °C.

As to `COC(=O)Cc1cnc(-c2ccccc2)n1Cc1ccc([N+](=O)[O-])cc1`, the melting point was 113 to 116 °C.

In turn, `CC1(C)C(=O)N(c2ccnc(NC(=O)NCc3ccccn3)c2)c2cccnc21` came in with a melting point of 160 to 163 °C.

As for `Cn1c(=O)n(CCC[C@@H](NS(=O)(=O)c2ccc(-c3ccccc3)cc2)C(=O)NO)c(=O)c2ccccc21`, the melting point lay within 202 to 203 °C.

`CCOC(=O)C(=O)NCc1ccccc1` displayed a melting point of 47 to 50 °C.

In the case of `CON=C1CC(=NOC)c2ccccc2-c2ccccc21`, the melting point was determined as 130 °C.

`CN(C(=O)CN(C(=O)CNC(=O)Nc1cccc(N2CCCCC2)c1)c1ccccc1)c1ccccc1` yielded a melting point of 235 °C.

The molecule `Cc1nnc(CCl)n1-c1ccc(Cl)cc1C(=O)c1ccccc1` showed a melting point of 139 to 140 °C.

In turn, `Oc1ccc(CCC(CCc2ccc(O)cc2)(c2ccc(O)cc2)c2ccc(O)cc2)cc1` yielded a melting point of 252 °C.

With `CC1(C)CCC(C)(C)c2cc(C(Br)C(Br)c3ccc(C#N)cc3)ccc21` (configuration not stated), the melting point is 174 to 175 °C.

Molecule `Clc1ccc(C2CCNCC2)cc1` registered a melting point of 143 °C.

In turn, `O=C(NN1CCOCC1)C(CS)Cc1c(Cl)cccc1Cl` (configuration not stated) returned a melting point of 142 °C.
